Results published in publication PMC10655120, “Highly efficient synergistic activity of an α-L-arabinofuranosidase for degradation of arabinoxylan in barley/wheat” (Frontiers in Microbiology, 2023).

Molecular target: T1, TtAbf62 (Thermothelomyces thermophilus, UniProt G2QJQ6)
T1 construct: gene MYCTH_55982; GH62; 321 residues with signal peptide MRPTRPGIVLLATATSVAG (1-19), replaced by alpha-factor signal (strain alpha-ABF); codon-optimized, secreted by Pichia pastoris X-33 (pPICZalphaA); N-glycosylated, 45-60 kDa (35 kDa deglycosylated); no purification described
T1 sequence (G2QJQ6 20-321): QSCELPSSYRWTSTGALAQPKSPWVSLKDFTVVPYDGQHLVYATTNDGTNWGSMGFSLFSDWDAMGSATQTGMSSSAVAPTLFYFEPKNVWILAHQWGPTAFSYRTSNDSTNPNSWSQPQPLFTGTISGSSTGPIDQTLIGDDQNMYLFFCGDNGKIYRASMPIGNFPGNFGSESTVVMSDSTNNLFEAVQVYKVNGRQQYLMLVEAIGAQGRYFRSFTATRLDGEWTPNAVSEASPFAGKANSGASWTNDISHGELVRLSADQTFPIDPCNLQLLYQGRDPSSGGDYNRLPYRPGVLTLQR
Test: HPLC of released arabinose
Format: biochemical
Conditions: 5 mg/mL substrate, 7.7 U/mL secreted enzyme, 50 mM sodium acetate pH 5.0, 60 °C, 1 h

Row | Compound | HPLC of released arabinose
1 | OC[C@@H]1O[C@@H](O[C@H]2[C@H](O[C@@H]3CO[C@@H](O[C@@H]4COC(O)[C@H](O)[C@H]4O)[C@H](O)[C@H]3O)OC[C@@H](O)[C@@H]2O)[C@H](O)[C@H]1O (stereo partly drawn) [A^2XX, 2^3-α-L-arabinofuranosyl-xylotriose] | able to release arabinose from single-arabinofuranosyl arabinoxylo-oligosaccharides substrates (A^3X, A^2XX, and XA^3XX)
2 | OC[C@@H]1O[C@@H](O[C@@H]2[C@@H](O)[C@H](O[C@@H]3COC(O)[C@H](O)[C@H]3O)OC[C@H]2O)[C@H](O)[C@H]1O (stereo partly drawn) [A^3X, 3^2-α-L-arabinofuranosyl-xylobiose] | able to release arabinose from single-arabinofuranosyl arabinoxylo-oligosaccharides substrates (A^3X, A^2XX, and XA^3XX)
